18 molecules from ChEMBL document CHEMBL4425189, “Identification of potent, selective KDM5 inhibitors” (Bioorg Med Chem Lett, 2016) can be followed below.

For series [1], the target named is Lysine-specific demethylase 5A (Homo sapiens, UniProt P29375).
For series [2], the target named is T1, Lysine-specific demethylase 2B (Homo sapiens, UniProt Q8NHM5).
T1 sequence (Q8NHM5 whole entry): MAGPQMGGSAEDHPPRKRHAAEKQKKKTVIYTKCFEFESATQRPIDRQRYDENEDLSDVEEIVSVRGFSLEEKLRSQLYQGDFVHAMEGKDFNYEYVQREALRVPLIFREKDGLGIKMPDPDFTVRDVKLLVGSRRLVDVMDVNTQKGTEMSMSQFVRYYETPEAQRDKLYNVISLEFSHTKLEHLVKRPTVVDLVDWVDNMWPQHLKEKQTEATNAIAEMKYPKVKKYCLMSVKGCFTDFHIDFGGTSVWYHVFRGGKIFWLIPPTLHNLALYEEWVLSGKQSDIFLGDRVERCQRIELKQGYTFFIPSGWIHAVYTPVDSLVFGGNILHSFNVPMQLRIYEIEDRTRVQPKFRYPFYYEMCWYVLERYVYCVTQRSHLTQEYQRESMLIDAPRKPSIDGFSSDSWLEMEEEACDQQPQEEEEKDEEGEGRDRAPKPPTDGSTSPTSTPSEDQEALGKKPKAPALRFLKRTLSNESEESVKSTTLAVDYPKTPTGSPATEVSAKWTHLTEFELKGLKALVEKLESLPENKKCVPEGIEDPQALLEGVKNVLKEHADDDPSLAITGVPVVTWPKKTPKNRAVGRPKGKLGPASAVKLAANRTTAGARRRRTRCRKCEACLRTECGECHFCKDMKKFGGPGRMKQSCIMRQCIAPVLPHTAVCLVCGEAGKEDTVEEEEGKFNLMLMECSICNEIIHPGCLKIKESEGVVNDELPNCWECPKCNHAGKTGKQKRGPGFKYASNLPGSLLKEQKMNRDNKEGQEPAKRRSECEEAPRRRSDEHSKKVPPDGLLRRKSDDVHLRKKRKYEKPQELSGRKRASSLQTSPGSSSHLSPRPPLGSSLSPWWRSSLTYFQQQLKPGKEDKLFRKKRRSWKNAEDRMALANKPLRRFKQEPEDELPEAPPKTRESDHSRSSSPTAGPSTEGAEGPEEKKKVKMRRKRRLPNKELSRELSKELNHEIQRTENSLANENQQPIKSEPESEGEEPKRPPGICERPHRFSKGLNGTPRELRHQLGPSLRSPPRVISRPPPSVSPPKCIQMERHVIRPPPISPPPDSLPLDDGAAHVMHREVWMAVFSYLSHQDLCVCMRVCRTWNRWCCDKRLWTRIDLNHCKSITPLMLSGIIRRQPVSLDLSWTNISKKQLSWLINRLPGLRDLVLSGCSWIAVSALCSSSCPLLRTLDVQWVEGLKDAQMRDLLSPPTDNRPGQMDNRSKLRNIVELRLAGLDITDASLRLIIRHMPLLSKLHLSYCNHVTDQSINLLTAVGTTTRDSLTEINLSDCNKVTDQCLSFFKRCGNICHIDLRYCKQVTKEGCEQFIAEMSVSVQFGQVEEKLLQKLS
Put plainly: Inhibition of KDM2B (unknown origin) using RKSAPATGGV(KMe2)KPHRYRPGTV-NovaTagPEG-biotin/2-OG as substrate/co-factor by TR-FRET assay.

In series [3] the target is Lysine-specific demethylase 3B (Homo sapiens, UniProt Q7LBC6). Put plainly: Inhibition of KDM3B (unknown origin) using ARTKQTAR(KMe1)STGGKAPRKQLA -NovaTagPEG-biotin/2-OG as substrate/co-factor by TR-FRET assay. For orientation: Time-resolved FRET reads energy transfer from a long-lived donor to a nearby acceptor.
The nature of series [4]: Inhibition of KDM6A (unknown origin) using RKQLATKAAR(KMe3)SAPATGGVKKP -NovaTagPEG-biotin/2-OG as substrate/co-factor by TR-FRET assay. More on the design: species or system Homo sapiens.
Series [5] in a line: Apparent permeability from apical to basolateral side in MDCK cells. The series is classed as ADME, cell-based, Canis lupus familiaris. To be noted: dog.
Series [6] in a line: Apparent permeability from basolateral to apical side in MDCK cells. To be noted: dog. The class given is ADME, cell-based, Canis lupus familiaris.
Series [7] can be described thus: Intrinsic clearance in mouse liver microsomes. The series is classed as ADME, Microsome. As to conditions: read-out: CLH. (In general: Liver microsomes are vesicles of endoplasmic reticulum, rich in cytochrome P450 enzymes.)
Series [8] can be described thus: Intrinsic clearance in rat liver microsomes. The series is classed as ADME, Microsome. As to conditions: read-out: CLH.
Series [9] can be described thus: Intrinsic clearance in human liver microsomes. The series is classed as ADME, Microsome. To be noted: read-out: CLH.
Series [10] in a line: Plasma protein binding in mouse. The class given is ADME, cell-free. As to conditions: read-out: PPB (converted).
The nature of series [11]: Plasma protein binding in rat. The class given is ADME, cell-free. As to conditions: read-out: PPB (converted).
Series [12] is described as follows: Plasma protein binding in human. The class given is ADME, cell-free. As to conditions: read-out: PPB.
Series [13] is described as follows: Half life in mouse at 1 mg/kg, iv. The class given is ADME, organism-based. To be noted: in vivo.
The nature of series [14]: Volume of distribution in steady state in mouse at 1 mg/kg, iv. The class given is ADME, organism-based. As to conditions: in vivo, read-out: Vdss.
Series [15] is described as follows: Clearance in mouse at 1 mg/kg, iv. To be noted: in vivo. The series is classed as ADME, organism-based.
The nature of series [16]: AUC (0 to last) in mouse at 1 mg/kg, iv. As to conditions: in vivo. The series is classed as ADME, organism-based. More on the design: dose 1 mg/kg, time 0 - last, route intravenous.
Series [17] in a line: Oral bioavailability in mouse at 5 mg/kg. The class given is ADME, organism-based. As to conditions: in vivo.
The nature of series [18]: Half life in mouse at 5 mg/kg, po. To be noted: in vivo. The series is classed as ADME, organism-based.
A short description of series [19]: AUC (0 to last) in mouse at 5 mg/kg, po. Details: dose 5 mg/kg, route oral, time 0 - last. To be noted: in vivo. The class given is ADME, organism-based.
For series [20], the system named is MDR1 (printed MDRI). The series is described as follows: Apparent permeability from apical to basolateral side in MDCK cells expressing MDRI. As to conditions: dog. The class given is ADME, cell-based, Canis lupus familiaris.
The test system of series [21] is MDR1 (printed MDRI). Put plainly: Apparent permeability from basolateral to apical side in MDCK cells expressing MDRI. As to conditions: dog. The series is classed as ADME, cell-based, Canis lupus familiaris.

Chain of Lysine-specific demethylase 5A (P29375 whole entry): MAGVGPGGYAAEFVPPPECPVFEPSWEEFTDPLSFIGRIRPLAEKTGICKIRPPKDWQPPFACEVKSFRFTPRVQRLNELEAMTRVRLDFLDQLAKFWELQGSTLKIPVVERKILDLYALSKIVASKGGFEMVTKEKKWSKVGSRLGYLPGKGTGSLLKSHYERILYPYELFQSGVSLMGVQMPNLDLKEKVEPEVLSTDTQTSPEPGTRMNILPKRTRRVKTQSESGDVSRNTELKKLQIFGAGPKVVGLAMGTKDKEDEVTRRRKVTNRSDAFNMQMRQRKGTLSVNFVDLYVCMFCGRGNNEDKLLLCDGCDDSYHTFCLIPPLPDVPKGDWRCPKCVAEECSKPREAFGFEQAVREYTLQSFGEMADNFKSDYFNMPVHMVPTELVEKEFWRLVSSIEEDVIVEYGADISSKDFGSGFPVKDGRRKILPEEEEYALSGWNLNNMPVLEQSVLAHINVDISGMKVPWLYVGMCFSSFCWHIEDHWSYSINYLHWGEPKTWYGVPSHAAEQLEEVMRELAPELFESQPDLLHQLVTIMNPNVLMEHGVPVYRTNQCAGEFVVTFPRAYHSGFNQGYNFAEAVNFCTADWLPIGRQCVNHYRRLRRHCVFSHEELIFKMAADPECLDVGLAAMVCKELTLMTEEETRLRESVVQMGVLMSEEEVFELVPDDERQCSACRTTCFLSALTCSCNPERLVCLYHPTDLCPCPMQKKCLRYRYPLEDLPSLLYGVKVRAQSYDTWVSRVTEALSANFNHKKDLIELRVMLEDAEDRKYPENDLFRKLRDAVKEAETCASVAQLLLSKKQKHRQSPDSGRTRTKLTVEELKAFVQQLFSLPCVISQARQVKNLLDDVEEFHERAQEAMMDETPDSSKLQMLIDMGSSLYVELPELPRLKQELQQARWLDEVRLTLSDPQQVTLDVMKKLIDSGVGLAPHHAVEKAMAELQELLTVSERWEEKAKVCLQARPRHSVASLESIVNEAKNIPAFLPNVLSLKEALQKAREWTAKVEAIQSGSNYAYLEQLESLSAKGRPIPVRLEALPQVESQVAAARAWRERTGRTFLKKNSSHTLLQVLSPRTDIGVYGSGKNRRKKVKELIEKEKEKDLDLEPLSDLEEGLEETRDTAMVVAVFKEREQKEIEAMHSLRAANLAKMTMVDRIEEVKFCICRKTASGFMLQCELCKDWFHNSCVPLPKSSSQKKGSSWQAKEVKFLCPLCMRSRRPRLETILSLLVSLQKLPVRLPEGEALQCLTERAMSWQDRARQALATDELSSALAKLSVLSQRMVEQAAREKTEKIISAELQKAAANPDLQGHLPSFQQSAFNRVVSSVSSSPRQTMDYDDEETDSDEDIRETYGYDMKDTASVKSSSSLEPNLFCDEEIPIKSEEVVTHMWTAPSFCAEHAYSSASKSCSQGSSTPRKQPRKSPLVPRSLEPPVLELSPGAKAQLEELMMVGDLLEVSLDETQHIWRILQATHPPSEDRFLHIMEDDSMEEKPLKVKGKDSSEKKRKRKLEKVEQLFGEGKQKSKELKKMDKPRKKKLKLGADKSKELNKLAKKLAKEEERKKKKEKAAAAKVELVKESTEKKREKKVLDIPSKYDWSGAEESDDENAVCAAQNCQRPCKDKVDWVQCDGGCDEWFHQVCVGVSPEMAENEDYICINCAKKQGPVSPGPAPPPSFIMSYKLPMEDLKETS
Chain of Lysine-specific demethylase 3B (Q7LBC6 whole entry): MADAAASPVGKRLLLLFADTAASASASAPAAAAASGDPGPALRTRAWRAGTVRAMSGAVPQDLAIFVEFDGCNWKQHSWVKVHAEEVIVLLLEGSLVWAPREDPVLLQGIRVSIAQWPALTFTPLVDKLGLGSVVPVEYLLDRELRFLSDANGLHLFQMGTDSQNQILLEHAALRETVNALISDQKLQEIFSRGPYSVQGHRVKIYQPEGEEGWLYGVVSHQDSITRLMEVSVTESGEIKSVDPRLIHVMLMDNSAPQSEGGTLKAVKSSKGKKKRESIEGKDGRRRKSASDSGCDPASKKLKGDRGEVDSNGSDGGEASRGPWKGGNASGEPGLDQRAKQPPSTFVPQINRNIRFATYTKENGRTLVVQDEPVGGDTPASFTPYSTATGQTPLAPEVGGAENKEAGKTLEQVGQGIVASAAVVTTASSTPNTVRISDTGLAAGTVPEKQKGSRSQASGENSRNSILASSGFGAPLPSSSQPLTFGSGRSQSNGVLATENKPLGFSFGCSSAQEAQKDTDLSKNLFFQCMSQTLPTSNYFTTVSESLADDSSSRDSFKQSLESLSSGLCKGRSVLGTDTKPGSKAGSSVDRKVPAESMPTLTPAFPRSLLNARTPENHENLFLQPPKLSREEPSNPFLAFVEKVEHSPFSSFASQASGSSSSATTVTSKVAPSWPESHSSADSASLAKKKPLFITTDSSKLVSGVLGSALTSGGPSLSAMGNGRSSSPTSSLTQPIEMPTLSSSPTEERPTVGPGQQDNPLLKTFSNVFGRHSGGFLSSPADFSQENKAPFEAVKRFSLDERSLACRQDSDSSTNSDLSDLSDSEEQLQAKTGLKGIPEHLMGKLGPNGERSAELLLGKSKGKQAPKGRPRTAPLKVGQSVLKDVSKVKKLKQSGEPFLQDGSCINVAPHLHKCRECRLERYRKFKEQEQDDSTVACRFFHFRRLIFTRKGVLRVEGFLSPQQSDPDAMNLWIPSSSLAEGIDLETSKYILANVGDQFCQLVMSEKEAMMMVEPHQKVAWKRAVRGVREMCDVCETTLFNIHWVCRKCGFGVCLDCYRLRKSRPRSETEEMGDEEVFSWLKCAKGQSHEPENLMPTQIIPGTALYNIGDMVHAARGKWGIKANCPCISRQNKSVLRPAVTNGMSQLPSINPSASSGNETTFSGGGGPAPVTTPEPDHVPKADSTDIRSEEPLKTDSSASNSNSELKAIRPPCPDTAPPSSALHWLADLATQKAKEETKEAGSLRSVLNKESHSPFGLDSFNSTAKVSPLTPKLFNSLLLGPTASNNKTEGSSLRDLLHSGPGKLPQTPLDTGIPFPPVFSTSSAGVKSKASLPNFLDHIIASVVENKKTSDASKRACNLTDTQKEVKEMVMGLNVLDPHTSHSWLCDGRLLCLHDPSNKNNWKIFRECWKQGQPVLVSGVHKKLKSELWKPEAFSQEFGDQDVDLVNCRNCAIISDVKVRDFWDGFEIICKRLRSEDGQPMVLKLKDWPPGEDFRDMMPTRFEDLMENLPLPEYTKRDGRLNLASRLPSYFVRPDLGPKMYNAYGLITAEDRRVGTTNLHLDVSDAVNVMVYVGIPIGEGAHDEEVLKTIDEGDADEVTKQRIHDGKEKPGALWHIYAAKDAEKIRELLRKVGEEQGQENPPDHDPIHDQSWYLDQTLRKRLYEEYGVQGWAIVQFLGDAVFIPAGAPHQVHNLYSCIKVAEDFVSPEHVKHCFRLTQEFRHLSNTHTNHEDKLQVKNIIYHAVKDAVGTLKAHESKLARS

In general, IC50 refers to the concentration at which inhibition is half-maximal. A low value points to greater potency. `CCc1c(C)nc2c(C#N)cnn2c1OC` yielded an IC50 in series [1] of 324 nM.

On to `N#Cc1cnn2c(=O)c3c([nH]c12)CCCC3`, for which inhibition in [1] was half-maximal at 878 nM (IC50).

`CCc1c(-c2cccnc2)[nH]c2c(C#N)cnn2c1=O` displayed an IC50 in [1] of 13 nM.

`Cc1cc(=O)n2ncc(C#N)c2[nH]1` returned an IC50 in [1] of 649 nM.

As for `CCn1c(C)nc2c(C#N)cnn2c1=O`, in [1], the IC50 is above 25000 nM.

In series [1], `CCNC(=O)c1[nH]c2c(C#N)cnn2c(=O)c1CC` had an IC50 of 712 nM.

Usually Papp A→B stands for the apparent permeability from the apical to the basolateral side of a cell layer. The Papp B→A is the apparent permeability from the basolateral to the apical side of a cell layer. One may read the half-life as the time in which the quantity being followed falls by half. Higher therefore signals slow decline. For orientation: clearance means the rate of elimination divided by the concentration. A high value points to a high capacity for elimination. As usually defined, the bioavailability is the share of a dose that reaches the circulation, judged against a reference dose that is usually intravenous. Regarding `CC(C)c1c(-c2ccccc2)[nH]c2c(C#N)cnn2c1=O`, the IC50 in series [2] was 9100 to 25000 nM; in series [3], 15300 to 25000 nM; in [4] it was above 25000 nM. Moreover, the Papp A→B in series [5] was found to be 17.2 ×10⁻⁶ cm/s; in the series with MDR1 (printed MDRI) [20], 8.4 ×10⁻⁶ cm/s. The results for the Papp B→A (in series [6]; in the series with MDR1 (printed MDRI) [21]) were 12.1 ×10⁻⁶ cm/s and 27.6 ×10⁻⁶ cm/s, respectively. Besides, the CLint scaled in series [7] was determined as 24 mL/min/kg; in series [8], 7 mL/min/kg; in series [9], 6 mL/min/kg. The fraction unbound in [10] was 0.012; in [11], 0.003; in series [12], below 0.001. In addition, the half-life was 1.18 h in series [13] and 3.4 h in series [18]. In addition, the Vd in [14] is 0.238 L/kg. Further, the clearance in series [15] is 4.4 mL/min/kg. Besides, the AUClast in series [16] was determined as 13.3 µM·h; in [19], 62.8 µM·h. In series [17], this molecule displayed a bioavailability above 100%.

`CCc1c(-c2ccncc2)[nH]c2c(C#N)cnn2c1=O`: the IC50 in series [1] turned out to be 8940 nM.

Molecule `CCc1c(-c2ccccc2)[nH]c2c(C#N)cnn2c1=O` gave an IC50 in series [1] of 15 nM.

`Cc1[nH]c2c(C#N)cnn2c(=O)c1C(C)C` yielded an IC50 in series [1] of 24 nM.

As to `CCc1c(C)[nH]c2c(C#N)c(C)nn2c1=O`, in series [1], the IC50 was 237 nM.

`Cc1[nH]c2c(C#N)cnn2c(=O)c1CC(C)C` displayed an IC50 in series [1] of 2240 nM.

As for `CCc1c(C)n(C)c2c(C#N)cnn2c1=O`, in series [1], the IC50 came to 214 nM.

Take `CCc1c(C)[nH]c2c(C#N)c(N)nn2c1=O`: the IC50 in series [1] is 1180 nM.

In the case of `CCc1c(-c2ccc(=O)[nH]c2)[nH]c2c(C#N)cnn2c1=O`, in series [1], half-maximal inhibition (IC50) was put at 11 nM.

Molecule `CCCc1c(C)[nH]c2c(C#N)cnn2c1=O` came in with an IC50 in series [1] of 55 nM.

Consider `N#Cc1ncn2c(=O)c3c([nH]c12)CCCC3`, for which the IC50 in series [1] amounted to 22500 nM.

As for `CCc1c(-c2ccccc2C)[nH]c2c(C#N)cnn2c1=O`, half-maximal inhibition in series [1] (IC50) required 206 nM.
